For 43 compounds, IC50 results are on record in ChEMBL document CHEMBL5247623, “The SAR and action mechanisms of autophagy inhibitors that eliminate drug resistance” (Eur J Med Chem, 2022).

Experiment [1] addresses Phosphatidylinositol 3-kinase catalytic subunit type 3 (Homo sapiens, UniProt Q8NEB9). Nature of the experiment: Inhibition of VPS34 (unknown origin).
Experiment [2] in a line: Inhibition of starvation induced autophagy in human MCF7 cells expressing eGFP-LC3. The class given is functional, cell-based.
A short description of experiment [3]: Inhibition of rapamycin induced autophagy in human MCF7 cells expressing eGFP-LC3. The class given is functional, cell-based.

Chain of Phosphatidylinositol 3-kinase catalytic subunit type 3 (Q8NEB9 whole entry): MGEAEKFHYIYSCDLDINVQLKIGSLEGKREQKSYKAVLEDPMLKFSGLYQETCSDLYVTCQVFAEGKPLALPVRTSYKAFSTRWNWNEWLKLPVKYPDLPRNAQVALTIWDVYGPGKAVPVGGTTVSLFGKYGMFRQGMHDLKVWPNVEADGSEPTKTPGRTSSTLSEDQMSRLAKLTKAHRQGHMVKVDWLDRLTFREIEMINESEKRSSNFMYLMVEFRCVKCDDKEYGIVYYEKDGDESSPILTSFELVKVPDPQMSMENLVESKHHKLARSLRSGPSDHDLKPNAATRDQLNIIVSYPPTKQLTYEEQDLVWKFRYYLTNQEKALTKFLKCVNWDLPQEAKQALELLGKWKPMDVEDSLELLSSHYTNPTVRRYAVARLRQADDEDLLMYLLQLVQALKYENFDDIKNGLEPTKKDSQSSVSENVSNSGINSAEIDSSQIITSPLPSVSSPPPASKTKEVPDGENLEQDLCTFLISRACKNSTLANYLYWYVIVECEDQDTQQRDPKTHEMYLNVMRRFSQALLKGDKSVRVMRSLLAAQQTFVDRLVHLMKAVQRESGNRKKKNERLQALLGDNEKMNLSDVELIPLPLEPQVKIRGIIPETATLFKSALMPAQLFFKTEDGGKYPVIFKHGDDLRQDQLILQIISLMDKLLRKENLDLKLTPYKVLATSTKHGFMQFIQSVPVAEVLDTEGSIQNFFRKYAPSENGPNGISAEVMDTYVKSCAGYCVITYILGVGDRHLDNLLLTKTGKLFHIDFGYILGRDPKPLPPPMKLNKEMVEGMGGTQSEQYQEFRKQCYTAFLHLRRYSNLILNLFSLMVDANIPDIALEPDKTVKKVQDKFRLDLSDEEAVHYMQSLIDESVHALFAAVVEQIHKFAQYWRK

In experiment [1], `COC(=O)c1coc2c(O)c3c(c(C)c12)C=C[C@]1(C)C(=O)CC[C@@H]31` came in with an IC50 of 4600 nM.

As for `COC[C@H]1OC(=O)c2coc3c2[C@@]1(C)C1=C(C3=O)[C@@H]2CCC(=O)[C@@]2(C)CC1`, the 50% inhibitory concentration (IC50) in experiment [1] is 17 nM. Compared with the last compound, the IC50 is about 270-fold lower.

As for `COC[C@H]1OC(=O)c2coc3c2[C@@]1(C)C1=CC[C@]2(C)C(=O)CC[C@H]2C1C3=O` (some centres undefined), it took 54 nM to reach half-maximal inhibition in experiment [1] (IC50). Against the preceding compound, the IC50 is about 3.2-fold higher.

In experiment [1], `COC[C@H]1OC(=O)c2coc3c2[C@@]1(C)C1=C(C3=O)[C@@H]2CC[C@H](O)[C@@]2(C)C[C@H]1OC(C)=O` had a 50% inhibitory concentration (IC50) of 0.5 nM.

Turning to `COC[C@H]1OC(=O)c2c(C)oc3c2[C@@]1(C)C1=C(C3=O)[C@@H]2CCC(=O)[C@@]2(C)C[C@H]1OC(C)=O`, in experiment [1], the IC50 is ≥ 500 nM.

Regarding `CCN(/C=C1\C(=O)O[C@H](COC)[C@@]2(C)C1=C(O)C(=O)C1=C2[C@H](OC(C)=O)C[C@]2(C)C(=O)CC[C@@H]12)CC`, the IC50 in experiment [1] came to 80 nM.

For `COC[C@H]1OC(=O)C2=CCOC3=C2[C@@]1(C)C1=C(C3=O)[C@@H]2CCC(=O)[C@@]2(C)C[C@H]1OC(C)=O`, the IC50 in experiment [1] amounted to 271 nM.

With `Cc1cc(Nc2cc(N3CCN(C)CC3)nc(Oc3ccc([N+](=O)[O-])cc3)n2)n[nH]1`, the values for the half-maximal inhibitory concentration (IC50) in experiment [1] and in experiment [2] were 146 nM and 390 nM, respectively.

In the case of `COC[C@H]1OC(=O)C23CC2COC2=C3[C@@]1(C)C1=C(C2=O)[C@@H]2CCC(=O)[C@@]2(C)C[C@H]1OC(C)=O` (some centres undefined), the 50% inhibitory concentration (IC50) in experiment [1] was ≥ 500 nM.

As to `Cc1cc(Nc2cc(Cl)nc(Oc3ccc([N+](=O)[O-])cc3)n2)n[nH]1`, the IC50 in experiment [2] came to 90 nM; in experiment [3], 40 nM.

Compound `O=C(C1CC1)N1CCc2cc(Br)c(S(=O)(=O)Nc3ccc(Cl)c(C(F)(F)F)c3)cc21` had an IC50 in experiment [2] of 140 nM.

As to `CN/C=C1\C(=O)O[C@H](COC)[C@@]2(C)C1=C(O)C(=O)C1=C2[C@H](OC(C)=O)C[C@]2(C)C(=O)CC[C@@H]12`, the concentration for half-maximal inhibition (IC50) in experiment [1] was ≥ 500 nM.

Take `Clc1cc(Nc2cc[nH]n2)nc(OCc2ccncc2)n1`: the IC50 in experiment [1] was 110 nM; in experiment [2], 380 nM; in experiment [3], 280 nM.

Consider `CC(C)(C)c1cc(Nc2cc(Cl)nc(Oc3ccc([N+](=O)[O-])cc3)n2)n[nH]1`, for which the values for the IC50 in experiment [1], in experiment [2] and in experiment [3] were 627 nM, 1400 nM and 2000 nM, respectively.

`O=C(CC1CC1)N1CCc2cc(Br)c(S(=O)(=O)Nc3ccc(Cl)c(C(F)(F)F)c3)cc21`: in experiment [2], half-maximal inhibition (IC50) required 4500 nM. This counts as single-digit micromolar.

Take `Cc1cc(Nc2cc(N3CCOCC3)nc(Oc3ccc([N+](=O)[O-])cc3)n2)n[nH]1`: the results for the IC50 in experiment [1], in experiment [2] and in experiment [3] were 121 nM, 230 nM and 160 nM, respectively.

In turn, `CC(C)C(=O)N1CCc2cc(Br)c(S(=O)(=O)Nc3ccc(Cl)c(C(F)(F)F)c3)cc21` came in with a concentration for half-maximal inhibition (IC50) in experiment [2] of 3000 nM.

In the case of `COC[C@H]1OC(=O)c2coc3c2[C@@]1(C)C1=C(C3=O)[C@@H]2C[C@@H](Br)C(OC(C)=O)[C@@]2(C)C[C@H]1OC(C)=O` (some centres undefined), in experiment [1], the midpoint of inhibition, the IC50, lay at 77 nM.

`O=C(CC1CC1)N1CCc2ccc(S(=O)(=O)Nc3ccc(Cl)c(C(F)(F)F)c3)cc21` showed an IC50 in experiment [2] of 6600 nM.

In turn, `O=C(C1CC1)N1CCc2cc(Br)c(S(=O)(=O)Nc3cc(C(F)(F)F)ccc3F)cc21` returned an IC50 in experiment [2] of 1400 nM. Against the preceding compound, the IC50 is about 4.7-fold lower.

Consider `O=C(C1CC1)N1CCc2cc(Br)c(S(=O)(=O)Nc3cc(Cl)ccc3C(F)(F)F)cc21`, for which, in experiment [2], the half-maximal inhibitory concentration (IC50) was 2400 nM. Compared with the last compound, the IC50 is about 1.7-fold higher.

With `Cc1cc(Nc2cc(N(C)C)nc(Oc3ccc([N+](=O)[O-])cc3)n2)n[nH]1`, the IC50 in experiment [1] worked out at 285 nM; in experiment [2], 450 nM; in experiment [3], 280 nM.

In experiment [2], `O=C(C1CCC1)N1CCc2cc(Br)c(S(=O)(=O)Nc3ccc(Cl)c(C(F)(F)F)c3)cc21` showed an IC50 of 3300 nM.

With `Cc1cc(Nc2cc(Cl)nc(OCc3ccc([N+](=O)[O-])cc3)n2)n[nH]1`, the figures for the IC50 in experiment [1], in experiment [2] and in experiment [3] were 214 nM, 200 nM and 470 nM, respectively.

For `O=[N+]([O-])c1ccc(Oc2nc(Cl)cc(Nc3cc(C4CC4)[nH]n3)n2)cc1`, the results for the IC50 in experiment [1], in experiment [2] and in experiment [3] were 36 nM, 130 nM and 100 nM, respectively.

Turning to `Cc1cc(Nc2cc(C)[nH]n2)nc(Oc2ccc([N+](=O)[O-])cc2)n1`, the values for the IC50 in experiment [1], in experiment [2] and in experiment [3] were 23 nM, 70 nM and 40 nM, respectively.

With `COC[C@H]1OC(=O)c2coc3c2[C@@]1(C)C1=C(C3=O)[C@@H]2C[C@@H](O)C(OC(C)=O)[C@@]2(C)C[C@H]1OC(C)=O` (some centres undefined), half-maximal inhibition in experiment [1] (IC50) required 153 nM. This counts as sub-micromolar.

In experiment [2], `O=C(C1CC1)N1CCc2cc(Br)c(S(=O)(=O)Nc3cc(C(F)(F)F)ccc3Cl)cc21` registered a half-maximal inhibitory concentration (IC50) of 1100 nM.

Consider `Cc1cc(Nc2cc(Cl)nc(Oc3ccc([N+](=O)[O-])cc3)n2)no1`, for which the IC50 was 20 nM in experiment [1], 170 nM in experiment [2] and 120 nM in experiment [3].

In experiment [2], `Cc1ccc(NS(=O)(=O)c2cc3c(cc2Br)CCN3C(=O)C2CC2)cc1C(F)(F)F` returned an IC50 of 810 nM.

With `Cc1cc(Nc2cc(C(F)(F)F)nc(Nc3ccc([N+](=O)[O-])cc3)n2)n[nH]1`, the IC50 came to 310 nM in experiment [1], 340 nM in experiment [2] and 440 nM in experiment [3].

In experiment [1], `COC[C@H]1OC(=O)c2coc3c2[C@@]1(C)C1=C(C3=O)[C@@H]2C[C@@H](OC(C)=O)C(OC(C)=O)[C@@]2(C)C[C@H]1OC(C)=O` (some centres undefined) registered an IC50 of 309 nM.

On to `O=[N+]([O-])c1ccc(Oc2nc(Cl)cc(Nc3ccccc3)n2)cc1`, for which the IC50 in experiment [2] was determined as 2130 nM. This lies in the single-digit micromolar range.

For `N#Cc1ccc(Oc2nc(Cl)cc(Nc3cc[nH]n3)n2)cc1`, the half-inhibitory concentration (IC50) in experiment [1] was 49 nM; in experiment [2], 130 nM; in experiment [3] it was 90 nM.

As for `COC[C@H]1OC(=O)c2coc3c2[C@@]1(C)C1=C(C3=O)[C@@H]2CCC(OC(C)=O)[C@@]2(C)C[C@H]1OC(C)=O` (some centres undefined), in experiment [1], it took 59 nM to reach half-maximal inhibition (IC50).

In the case of `CCN/C=C1\C(=O)O[C@H](COC)[C@@]2(C)C1=C(O)C(=O)C1=C2[C@H](OC(C)=O)C[C@]2(C)C(=O)CC[C@@H]12`, in experiment [1], the half-inhibitory concentration (IC50) was ≥ 500 nM.

For `NS(=O)(=O)c1ccc(Oc2nc(Cl)cc(Nc3cc[nH]n3)n2)cc1`, the values for the IC50 in experiment [1], in experiment [2] and in experiment [3] were 61 nM, 450 nM and 420 nM, respectively.

`COC[C@H]1OC(=O)/C(=C\N)C2=C(O)C(=O)C3=C([C@H](OC(C)=O)C[C@]4(C)C(=O)CC[C@@H]34)[C@]21C`: the IC50 in experiment [1] is ≥ 500 nM.

With `Cc1cc(Nc2cc(C(F)(F)F)nc(Oc3ccc([N+](=O)[O-])cc3)n2)n[nH]1`, the IC50 in experiment [1] was 78 nM; in experiment [2] it was 190 nM; in experiment [3], 70 nM.

Turning to `CCCN/C=C1\C(=O)O[C@H](COC)[C@@]2(C)C1=C(O)C(=O)C1=C2[C@H](OC(C)=O)C[C@]2(C)C(=O)CC[C@@H]12`, in experiment [1], the IC50 was ≥ 500 nM.

Turning to `CCCCN/C=C1\C(=O)O[C@H](COC)[C@@]2(C)C1=C(O)C(=O)C1=C2[C@H](OC(C)=O)C[C@]2(C)C(=O)CC[C@@H]12`, in experiment [1], half-maximal inhibition (IC50) was put at 52 nM.

`O=C(C1CC1)N1CCc2cc(Br)c(S(=O)(=O)Nc3cccc(C(F)(F)F)c3)cc21` came in with an IC50 in experiment [2] of 560 nM. This counts as sub-micromolar.

With `COC[C@H]1OC(=O)c2coc3c2[C@@]1(C)C1=C(C3=O)[C@@H]2CCC(=O)[C@@]2(C)C[C@H]1OC(C)=O` [WORTMANNIN], the IC50 in experiment [1] was 4.2 nM.
